From PubChem BioAssay (NCI)
“And” between values parts separate entries of the source, which are not always exact repeats. Identical values can stand only once.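 Exposure lasted 48 hours, with cells grown in 96-well plates and compounds tested at five concentrations. Here, GI50 denotes the concentration required for 50% inhibition of growth. TGI denotes the concentration required for complete inhibition of growth.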

Experiments:
Assay in all cases: NCI tumour cell line growth inhibition, 48 h
786-0 renal = tested on: 786-0 renal
A498 renal = tested on: A498 renal
ACHN renal = tested on: ACHN renal
BT-549 breast = tested on: BT-549 breast
DU-145 prostate = tested on: DU-145 prostate
EKVX NSCLC = tested on: EKVX NSCLC
HCC-2998 colon = tested on: HCC-2998 colon
HOP-92 NSCLC = tested on: HOP-92 NSCLC
HS 578T breast = tested on: HS 578T breast
KM12 colon = tested on: KM12 colon
LXFL 529 NSCLC = tested on: LXFL 529 NSCLC
M14 melanoma = tested on: M14 melanoma
MDA-MB-231 breast = tested on: MDA-MB-231 breast
NCI-H522 lung = tested on: NCI-H522 lung
PC-3 prostate = tested on: PC-3 prostate
RXF 393 renal = tested on: RXF 393 renal
RXF-631 renal = tested on: RXF-631 renal
SF-539 CNS = tested on: SF-539 CNS
SK-MEL-28 melanoma = tested on: SK-MEL-28 melanoma
SNB-75 CNS = tested on: SNB-75 CNS
SR leukemia = tested on: SR leukemia
T-47D breast = tested on: T-47D breast
TK-10 renal = tested on: TK-10 renal
XF 498 CNS = tested on: XF 498 CNS
A549 NSCLC = tested on: A549 NSCLC
CCRF-CEM leukemia = tested on: CCRF-CEM leukemia
COLO 205 colon = tested on: COLO 205 colon
DLD-1 colon = tested on: DLD-1 colon
DMS 114 small cell lung = tested on: DMS 114 small cell lung
DMS 273 small cell lung = tested on: DMS 273 small cell lung
HCT-116 colon = tested on: HCT-116 colon
HCT-15 colon = tested on: HCT-15 colon
HL-60(TB) leukemia = tested on: HL-60(TB) leukemia
HOP-18 NSCLC = tested on: HOP-18 NSCLC
HOP-62 NSCLC = tested on: HOP-62 NSCLC
HT29 colon = tested on: HT29 colon
IGROV1 ovarian = tested on: IGROV1 ovarian
K-562 leukemia = tested on: K-562 leukemia
KM20L2 colon = tested on: KM20L2 colon
LOX IMVI melanoma = tested on: LOX IMVI melanoma
M19-MEL melanoma = tested on: M19-MEL melanoma
MOLT-4 leukemia = tested on: MOLT-4 leukemia
NCI-H226 lung = tested on: NCI-H226 lung
NCI-H23 lung = tested on: NCI-H23 lung
NCI-H460 lung = tested on: NCI-H460 lung
OVCAR-3 ovarian = tested on: OVCAR-3 ovarian
OVCAR-4 ovarian = tested on: OVCAR-4 ovarian
OVCAR-8 ovarian = tested on: OVCAR-8 ovarian
RPMI-8226 leukemia = tested on: RPMI-8226 leukemia
SF-268 CNS = tested on: SF-268 CNS
SF-295 CNS = tested on: SF-295 CNS
SK-MEL-2 melanoma = tested on: SK-MEL-2 melanoma
SK-MEL-5 melanoma = tested on: SK-MEL-5 melanoma
SK-OV-3 ovarian = tested on: SK-OV-3 ovarian
SN12C renal = tested on: SN12C renal
SNB-19 CNS = tested on: SNB-19 CNS
SNB-78 CNS = tested on: SNB-78 CNS
SW-620 colon = tested on: SW-620 colon
U251 CNS = tested on: U251 CNS
UACC-257 melanoma = tested on: UACC-257 melanoma
UACC-62 melanoma = tested on: UACC-62 melanoma
UO-31 renal = tested on: UO-31 renal
CAKI-1 renal = tested on: CAKI-1 renal
MALME-3M melanoma = tested on: MALME-3M melanoma
OVCAR-5 ovarian = tested on: OVCAR-5 ovarian

Compound: COc1cccc2c1C(=O)c1c(O)c3c(c(O)c1C2=O)C[C@@](O)(C(=O)CO)C[C@@H]3OC1CC(N2CCOCC2C#N)C(O)C(C)O1 (stereo not given in full)
- GI50 (786-0 renal): 0.0534 nM and 0.0331 nM
- TGI (786-0 renal): 0.00224 µM and 0.00151 µM and 0.00447 µM
- TGI (A498 renal): 0.00104 µM and 0.000139 µM
- GI50 (ACHN renal): 0.078 nM and 0.023 nM
- TGI (BT-549 breast): 0.000234 µM and 0.00023 µM
- TGI (DU-145 prostate): 0.02 µM
- TGI (EKVX NSCLC): 0.00075 µM and 0.000901 µM
- TGI (HCC-2998 colon): 0.000208 µM and 0.000237 µM
- TGI (HOP-92 NSCLC): 0.000614 µM and 0.000566 µM
- TGI (HS 578T breast): 0.0535 nM and 0.221 nM
- TGI (KM12 colon): 0.00155 µM and 0.000377 µM and 0.00259 µM
- GI50 (LXFL 529 NSCLC): 0.000245 µM
- GI50 (M14 melanoma): 0.0812 nM
- TGI (M14 melanoma): 0.000108 µM and 0.000527 µM
- TGI (MDA-MB-231 breast): 0.000812 µM
- TGI (NCI-H522 lung): 0.000411 µM and 0.000129 µM
- TGI (PC-3 prostate): 0.000124 µM and 0.00112 µM
- TGI (RXF 393 renal): 0.0982 nM and 0.0513 nM
- TGI (RXF-631 renal): 0.00227 µM and 0.0215 µM
- TGI (SF-539 CNS): 0.0001 µM and 0.000109 µM
- TGI (SK-MEL-28 melanoma): 0.000481 µM and 0.000552 µM
- TGI (SNB-75 CNS): 0.11 nM and 0.0613 nM
- GI50 (SR leukemia): 0.0468 nM
- TGI (T-47D breast): 0.00327 µM and 0.00581 µM
- GI50 (TK-10 renal): 0.000278 µM and 0.000374 µM
- TGI (XF 498 CNS): 0.000397 µM and 0.000282 µM

Compound: O=C(NCC(=O)N1CCOC1=O)OCc1ccccc1
- TGI (786-0 renal): > 100 µM
- TGI (A498 renal): > 100 µM
- TGI (A549 NSCLC): > 100 µM
- TGI (ACHN renal): > 100 µM
- TGI (CCRF-CEM leukemia): > 100 µM
- TGI (COLO 205 colon): > 100 µM
- TGI (DLD-1 colon): > 100 µM
- TGI (DMS 114 small cell lung): > 100 µM
- TGI (DMS 273 small cell lung): > 100 µM
- TGI (EKVX NSCLC): > 100 µM
- TGI (HCC-2998 colon): > 100 µM
- TGI (HCT-116 colon): > 100 µM
- TGI (HCT-15 colon): > 100 µM
- TGI (HL-60(TB) leukemia): > 100 µM
- TGI (HOP-18 NSCLC): > 100 µM
- TGI (HOP-62 NSCLC): > 100 µM
- TGI (HOP-92 NSCLC): > 100 µM
- TGI (HT29 colon): > 100 µM
- TGI (IGROV1 ovarian): > 100 µM
- TGI (K-562 leukemia): > 100 µM
- TGI (KM12 colon): > 100 µM
- TGI (KM20L2 colon): > 100 µM
- TGI (LOX IMVI melanoma): > 100 µM
- TGI (M14 melanoma): > 100 µM
- TGI (M19-MEL melanoma): > 100 µM
- TGI (MOLT-4 leukemia): > 100 µM
- TGI (NCI-H226 lung): > 100 µM
- TGI (NCI-H23 lung): > 100 µM
- TGI (NCI-H460 lung): > 100 µM
- TGI (NCI-H522 lung): > 100 µM
- TGI (OVCAR-3 ovarian): > 100 µM
- TGI (OVCAR-4 ovarian): > 100 µM
- TGI (OVCAR-8 ovarian): > 100 µM
- TGI (RPMI-8226 leukemia): > 100 µM
- TGI (RXF 393 renal): > 100000 nM
- TGI (SF-268 CNS): > 100 µM
- TGI (SF-295 CNS): > 100 µM
- TGI (SF-539 CNS): > 100 µM
- TGI (SK-MEL-2 melanoma): > 100 µM
- TGI (SK-MEL-28 melanoma): > 100 µM
- TGI (SK-MEL-5 melanoma): > 100 µM
- TGI (SK-OV-3 ovarian): > 100 µM
- TGI (SN12C renal): > 100 µM
- TGI (SNB-19 CNS): > 100 µM
- TGI (SNB-75 CNS): > 100000 nM
- TGI (SNB-78 CNS): > 100 µM
- TGI (SW-620 colon): > 100 µM
- TGI (TK-10 renal): > 100 µM
- TGI (U251 CNS): > 100 µM
- TGI (UACC-257 melanoma): > 100 µM
- TGI (UACC-62 melanoma): > 100 µM
- TGI (UO-31 renal): > 100 µM
- TGI (XF 498 CNS): > 100 µM

Compound: CN1Cc2c(nc(-c3ccc(Br)cc3)c[n+]2[O-])N(C)C1
- TGI (786-0 renal): > 100 µM
- TGI (A498 renal): > 100 µM
- TGI (A549 NSCLC): > 100 µM
- TGI (ACHN renal): > 100 µM
- TGI (CAKI-1 renal): > 100 µM
- TGI (CCRF-CEM leukemia): > 100 µM
- TGI (COLO 205 colon): > 100 µM
- TGI (DLD-1 colon): > 100 µM
- TGI (DMS 114 small cell lung): > 100 µM
- TGI (DMS 273 small cell lung): > 100 µM
- TGI (EKVX NSCLC): > 100 µM
- TGI (HCT-116 colon): > 100 µM
- TGI (HL-60(TB) leukemia): > 100 µM
- TGI (HOP-18 NSCLC): > 100 µM
- TGI (HOP-62 NSCLC): > 100 µM
- TGI (HOP-92 NSCLC): > 100 µM
- TGI (HT29 colon): > 100 µM
- TGI (IGROV1 ovarian): > 100 µM
- TGI (K-562 leukemia): > 100 µM
- TGI (KM12 colon): > 100 µM
- TGI (KM20L2 colon): > 100 µM
- TGI (LXFL 529 NSCLC): > 100 µM
- TGI (M14 melanoma): > 100 µM
- TGI (MALME-3M melanoma): > 100 µM
- TGI (MOLT-4 leukemia): > 100 µM
- TGI (NCI-H226 lung): > 100 µM
- TGI (NCI-H23 lung): > 100 µM
- TGI (NCI-H460 lung): > 100 µM
- TGI (NCI-H522 lung): > 100 µM
- TGI (OVCAR-3 ovarian): > 100 µM
- TGI (OVCAR-4 ovarian): > 100 µM
- TGI (OVCAR-5 ovarian): > 100 µM
- TGI (OVCAR-8 ovarian): > 100 µM
- TGI (RXF 393 renal): > 100000 nM
- TGI (SF-268 CNS): > 100 µM
- TGI (SF-295 CNS): > 100 µM
- TGI (SF-539 CNS): > 100 µM
- TGI (SK-MEL-2 melanoma): > 100 µM
- TGI (SK-MEL-28 melanoma): > 100 µM
- TGI (SK-MEL-5 melanoma): > 100 µM
- TGI (SK-OV-3 ovarian): > 100 µM
- TGI (SN12C renal): > 100 µM
- TGI (SNB-19 CNS): > 100 µM
- TGI (SNB-75 CNS): > 100000 nM
- TGI (SNB-78 CNS): > 100 µM
- TGI (SR leukemia): > 100 µM
- TGI (SW-620 colon): > 100 µM
- TGI (U251 CNS): > 100 µM
- TGI (UACC-257 melanoma): > 100 µM
- TGI (UO-31 renal): > 100 µM
- TGI (XF 498 CNS): > 100 µM
